Assay results reported in US20090118285A1, “USE OF KCNQ-OPENERS FOR TREATING OR REDUCING THE SYMPTOMS OF SCHIZOPHRENIA” (H. Lundbeck A/S, priority 2006, published 2009).

Legend:
KCNQ channels = details: Wuttke et al. 2005; cited from earlier work
[1] = system: conditioned avoidance response in rats; assay: Conditioned avoidance response in rats; type: in vivo, rat; details: rats
Source text: In the conditioned avoidance response (CAR) model, rats are trained to respond to a stimulus within a fixed time by moving from one place to another in order to avoid a footshock. Antipsychotics selectively suppress the avoidance response within a certain dose-range without suppressing escape behavior elicited by the appearance of the footshock. The CAR model is considered to be a predictive and reliable animal model that is sensitive to compounds with an antipsychotic potential.
Subjects. Male Wistar rats (Taconic, Denmark) weighing 150 g at the beginning of the study are used. The rats are housed ii pairs and maintained on a 12 h light/dark cycle (lights on 06:00). The animals are fed once daily (approx. 6 pellets/rat) in order to keep the rats at 80% of their free-feeding weight. Water is available ad libitum. Temperature (21±1° C.) and relative humidity (55±5%) are automatically controlled.
Experimental procedure. Conditioned avoidance testing is conducted using four automated shuttle-boxes (ENV-010M, MED-Associates) each placed in a sound-attenuated chamber. Each box is divided into two compartments by a partition with an opening. The position of the animal and crossings from one compartment to the other are detected by two photocells placed on either side of the dividing wall. Upon presentation of the conditioned stimuli (CS), tone and light, the animals have 10 s to cross to the other compartment of the shuttle-box in order to turn the CS off (end the trial) and avoid the appearance of the unconditioned stimulus (UCS). If the rat remains in the same compartment for more than 10 s, the UCS is presented as 0.5 mA scrambled foot-shocks until escape is performed or 10 s in maximal duration. The following behavioural variables are evaluated: avoidance (response to CS within 10 s); escape (response to CS+UCS); escape failures (failure to respond); intertrial crosses and locomotor activity. The rats are habituated to the shuttle-box 3 min before each test session. During training each test session consists of 30 trials with intertrial intervals varying randomly between 20 s and 30 s. Training is carried until the rats display an avoidance of 80% or more, on 3 consecutive days. A test is preceded by a pre-test the day before giving rise to a baseline value for each animal, thus the animals serve as their own control. Seven to eight rats are used at each dose level. A parallel control group receiving the vehicle of the test compound is also included.
Administration of compound.
Statistical analyses. The effects of compounds on avoidance and escape failure behaviours were statistically evaluated by means of a two-way repeated measures ANOVA followed by post hoc comparisons (Student-Newman-Keuls Method) when appropriate. P-levels <0.05 were considered statistically significant.

[2] = system: incidence of seizures in epileptic patients; details: clinical trials (Bialer et al. 2002); cited from earlier work
[3] = system: amphetamine-induced hyperactivity in the rat; assay: Amphetamine challenge: d-amphetamine induced hyperactivity in rats; type: in vivo; details: test substance s.c. 30 min before d-amphetamine sulphate 0.5 mg/kg, motility 2 hours, read-out: Amphetamine antagonism ED50 ± std. dev.
Source text: D-amphetamine administration to rodents stimulates an increase in locomotor activity via mesolimbic dopamine receptors in the nucleus accumbens. While psychostimulant psychosis may not model all forms of schizophrenia, it may have applicability to paranoid schizophrenia and non-schizophrenic psychotic disorders (Krystal et al. pp. 214-224 in Neurobiology of Mental Illness ISBN 0-19-511265-2). It is believed that inhibition of the amphetamine-induced increase in locomotor activity is a reliable method for the evaluation of compounds with an antipsychotic potential (Ögren et al., European J. Pharmacol. 1984, 102, 459-464). In the following experiment, it was tested if the inhibition of spontaneous DA neurons in the mesolimbic circuit that was assessed above, could be translated into behavioral antipsychotic endpoint.
Subjects. Male Wistar rats (Taconic, Denmark) weighing 170-240 g are used. The animals were housed under a 12-hr light/dark cycle under controlled conditions for regular in-door temperature (21±2° C.) and humidity (55±5%) with food and tap water available ad libitum. Eight rats were used at each dose level and in the parallel control group receiving the vehicle to the test compound plus d-amphetamine and the group receiving vehicle injections only.

**Q.** What does the source list for CCOC(=O)Nc1ccc(NCc2ccc(F)cc2)cc1N?
**A.** Binding to KCNQ channels (KCNQ channels): bind to KCNQ channels; % inhibition of avoidance. Relative to baseline. ([1]; 5 mg/kg s.c. 30 min before the test): 1%; % inhibition of avoidance. Relative to baseline. ([1]; 10 mg/kg s.c. 30 min before the test): 59%; Escape failures (effect on motor performance) ([1]; all tested doses, data not shown): None of the tested doses caused any incidences of escape failures; Incidence of seizures in epileptic patients [2]: shown effectiveness in reducing the incidence of seizures in epileptic patients; ED50 [3]: 2.3 mg/kg
